Data set [1] addresses GABA-A receptor; agonist GABA site (Homo sapiens) (UniProt P14867+P47870+P28472+P48169+P34903+P18505+P47869+P31644+Q16445). Nature of the data set: Displacement of [3H]TBOB from GABAA receptor (unknown origin) at 10 uM. It counts as protein-complex assay.
The test system of data set [2] is Mus musculus. Nature of the data set: Anticonvulsant activity in Mus musculus CF1 (mouse) assessed as protection against maximal electroshock-induced seizures at 100 to 300 mg/kg measured after 0.5 hr. It is filed as functional. (In general: Protection in the maximal electroshock model is a classic sign of anticonvulsant action.)
Data set [3] concerns Mus musculus. As to the kind of experiment: Anticonvulsant activity in Mus musculus CF1 (mouse) assessed as protection against subcutaneous pentylenetetrazol-induced seizures at 100 to 300 mg/kg. It is filed as functional, organism-based.
The test system of data set [4] is Mus musculus. Nature of the data set: Anticonvulsant activity in Mus musculus CF1 (mouse) assessed as protection against maximal electroshock-induced seizures at 100 to 300 mg/kg measured after 4 hr. It counts as functional.
Data set [5] concerns Mus musculus. As to the kind of experiment: (§1) Neurotoxicity in Mus musculus CF1 (mouse) at 100 to 300 mg/kg by rotorod test. It is filed as toxicity, organism-based. Details: dose 100-300 mg/kg. Conditions: mouse, in vivo.
Data set [6] has as its system Mus musculus. As to the kind of experiment: Anticonvulsant activity in Mus musculus CF1 (mouse) assessed as protection against subcutaneous pentylenetetrazol-induced seizures at 300 mg/kg. Further details: dose 300 mg/kg. It counts as functional, organism-based.
Data set [7] in a line: as §1. Details: dose 100-300 mg/kg. It is filed as toxicity, organism-based. Conditions: CF1, mouse, in vivo.
For data set [8], the system named is Mus musculus. Nature of the data set: Neurotoxicity in Mus musculus CF1 (mouse) at 300 mg/kg by rotorod test. Further details: dose 300 mg/kg. The following applies: in vivo. It is filed as toxicity, organism-based.
Data set [9] concerns Mus musculus. As to the kind of experiment: Anticonvulsant activity in Mus musculus CF1 (mouse) assessed as protection against subcutaneous pentylenetetrazol-induced seizures. It is filed as functional.
Data set [10] deals with Mus musculus. As to the kind of experiment: Anticonvulsant activity in Mus musculus CF1 (mouse) assessed as protection against maximal electroshock-induced seizures at 300 mg/kg. It is filed as functional, organism-based. Further details: dose 300 mg/kg.

SMILES strings stand for the structures. Calls of active or inactive are those of the source. The rule behind the calls is not given here.

A word on the inhibition: it is the change of the read-out against control, counted positive when it falls. A lower inhibition goes with a response near the control. One may read the ED50 as the dose at which the effect has come halfway, by size or by number of responders. As usually defined, the TD50 is the dose at which the toxic effect under study appears in half of the subjects.

In data set [1], `CCC1(CC)CC(CO)OC1=O` (centres undefined) registered an inhibition of 9.1%.
On to `CCC1(CC)CC(COC(=O)c2ccc(Br)cc2)OC1=O` (centres undefined), for which the outcome in the data set with Mus musculus [2], with Mus musculus [3] and with Mus musculus [4] was inactive. In addition, the Activity result in the data set with Mus musculus [5] is given as “Non-toxic”.
As for `CCCCCCCC(=O)OCCC1CC(CC)(CC)C(=O)O1` (centres undefined), the outcome in the data set on Mus musculus [2] and in the data set on Mus musculus [3] was inactive.
For `CCC1(CC)CC(CCOC(=O)c2ccc(C)cc2)OC1=O` (centres undefined), the result with Mus musculus [2] and with Mus musculus [3] was inactive. In addition, the result in the data set on Mus musculus [6] was Active.
As to `CCC1(CC)CC(CCOC(=O)c2ccccc2)OC1=O` (centres undefined), the outcome in the data set with Mus musculus [2] and in the data set on Mus musculus [3] was inactive. Also, the inhibition in [1] is 3.86%.
As for `CCC1(CC)CC(COC(=O)c2ccccc2)OC1=O` (centres undefined), the outcome with Mus musculus [2], in the data set on Mus musculus [3] and in the data set with Mus musculus [4] was inactive. For the same compound, the Activity result in the data set on Mus musculus [5] is recorded as “Non-toxic”. In addition, in data set [1], the inhibition was 12.5%.
In the case of `CCC1(CC)CC(CCNC(=O)c2ccc(C)cc2)OC1=O` (centres undefined), the outcome in the data set with Mus musculus [2] and with Mus musculus [3] was inactive.
Consider `CCCCCCCC(=O)NCCC1CC(CC)(CC)C(=O)O1` (centres undefined), for which the result in the data set with Mus musculus [2] and in the data set on Mus musculus [3] was inactive.
Regarding `CCC1(CC)CC(CCOC(=O)c2ccc(OC)cc2)OC1=O` (centres undefined), the result in the data set on Mus musculus [2] and in the data set with Mus musculus [3] was inactive.
For the compound `CCC(=O)OCCC1CC(CC)(CC)C(=O)O1` (centres undefined), the outcome in the data set with Mus musculus [2] and with Mus musculus [3] was inactive.
`CCC1(CC)CC(CNC(=O)c2ccc(Br)cc2)OC1=O` (centres undefined): the ED50 with Mus musculus [2] (CF1, 0.5 h, dose mg/kg 100-300) is 89.9 mg/kg; in the data set on Mus musculus [4] (CF1, 4 h, dose mg/kg 100-300) it was 89.9 mg/kg. Also, in data set [7], the TD50 is 285 mg/kg.
Regarding `CCC(=O)OCC1CC(CC)(CC)C(=O)O1` (centres undefined), the result in the data set with Mus musculus [2], in the data set on Mus musculus [3] and in the data set with Mus musculus [4] was inactive. In addition, the Activity result with Mus musculus [5] is “Non-toxic”.
Turning to `CCC1(CC)CC(CCNC(=O)c2ccc(Br)cc2)OC1=O` (centres undefined), the outcome with Mus musculus [2] and in the data set on Mus musculus [3] was inactive.
With `CCC(=O)NCCC1CC(CC)(CC)C(=O)O1` (centres undefined), the result in the data set with Mus musculus [2] and in the data set on Mus musculus [3] was inactive. The inhibition in data set [1] turned out to be 3.62%.
Turning to `CCC1(CC)CC(CCNC(=O)c2ccc(OC)cc2)OC1=O` (centres undefined), the result in the data set with Mus musculus [2] and in the data set on Mus musculus [3] was inactive.
On to `CCC1(CC)CC(COC(=O)c2ccc(C)cc2)OC1=O` (centres undefined), for which the outcome in the data set on Mus musculus [2], in the data set on Mus musculus [3] and in the data set with Mus musculus [4] was inactive. Besides, in the data set on Mus musculus [5], the Activity entry is “Non-toxic”.
In the case of `CCC1(CC)CC(CCOC(=O)c2ccc(Br)cc2)OC1=O` (centres undefined), the outcome in the data set with Mus musculus [2] and with Mus musculus [3] was inactive. Besides, the Activity result in the data set on Mus musculus [8] is on record as “Toxic”.
Take `CCC1(CC)CC(COC(=O)c2ccc(OC)cc2)OC1=O` (centres undefined): the figures for the Activity in the data set on Mus musculus [9] and in the data set with Mus musculus [5] were 300 mg/kg and “Non-toxic”, respectively. Also, the outcome in the data set on Mus musculus [2] and in the data set with Mus musculus [4] was inactive.
For `CCCCCCCC(=O)OCC1CC(CC)(CC)C(=O)O1` (centres undefined), the result in the data set with Mus musculus [2], with Mus musculus [3] and in the data set on Mus musculus [4] was inactive. For the same compound, the Activity entry with Mus musculus [5] was “Non-toxic”.
With `CCC1(CC)CC(CCNC(=O)c2ccccc2)OC1=O` (centres undefined), the outcome in the data set with Mus musculus [2] and in the data set on Mus musculus [3] was inactive. Besides, the result in the data set on Mus musculus [10] was Active. This compound came in with an inhibition in data set [1] of 0.29%.

For the origin of these results see ChEMBL document CHEMBL3046958, “Synthesis and Evaluation of Homologous Analogs of Anticonvulsant 5-Substituted 3,3-Diethyl-4,5-Dighdro-2(3H)-Furanones” (Med Chem Res, 2005).
